In ChEMBL document CHEMBL1134234, “NO-independent stimulators of soluble guanylate cyclase” (Bioorg Med Chem Lett, 2001) one finds IC50 and Inhibition data, which are given here for 58 compounds.

The species entered for one assay is Oryctolagus cuniculus. The assay is described as follows: (§1) Ability to inhibit maximum constriction of phenylephrine-treated precontracted (3x10 -8 g/mL) rabbit aortic rings. The class given is functional. The note with it: Aorta.
As for `CSc1cnc(-c2nn(Cc3ccccc3F)c3ncccc23)nc1N`, the IC50 (commonly the concentration that gives 50% inhibition) is 243 µM.
Turning to `NCc1cnc(-c2nn(Cc3ccccc3F)c3ncccc23)nc1N`, the half-inhibitory concentration (IC50) was 1.4 µM.
The same measure, in the same setting: as for `CCc1c[nH]c(-c2nn(Cc3ccccc3F)c3ncccc23)n1`, the figure is 0.6 µM; as for `OCc1ccc(-c2nn(Cc3cncnc3)c3ccccc23)o1`, 3.2 µM; as for `Nc1nc(-c2nn(Cc3ccccc3F)c3ncccc23)ncc1CC(F)(F)F`, 508 µM.
`CCCCCCc1cnc(-c2nn(Cc3ccccc3F)c3ncccc23)nc1N` returned an IC50 of 1.04 µM.
In turn, `CCOP(=O)(OCC)c1cnc(-c2nn(Cc3ccccc3F)c3ncccc23)nc1N` had a half-maximal inhibitory concentration (IC50) of 414 µM.
In turn, `Nc1nc(-c2nn(Cc3ccccc3F)c3ncccc23)ncc1C1CC1` returned a half-inhibitory concentration (IC50) of 304 µM.
Take `OCc1ccc(-c2nn(Cc3ccccc3F)c3ccncc23)o1`: the IC50 turned out to be 9.8 µM.
`Fc1ccccc1Cn1nc(-c2ccco2)c2cccnc21`: half-maximal inhibition (IC50) required 9.3 µM.
In turn, `Nc1nc(-c2nn(Cc3ccccc3F)c3ncccc23)ncc1C1=CCCC1` displayed a concentration for half-maximal inhibition (IC50) of 0.836 µM.
Same read-out and setting: as for `OCc1ccc(-c2nn(Cc3ccccn3)c3ccccc23)o1`, the figure is 16 µM; as for `OCc1ccc(-c2nn(Cc3ccccc3F)c3cnccc23)o1`, 6.93 µM.
Same read-out and setting: next, `Cc1cc(N)nc(-c2nn(Cc3ccccc3F)c3ncccc23)n1`: 536 µM; `Cc1oc(-c2nn(Cc3ccccc3F)c3ncccc23)nc1CO`: 1.5 µM.
Compound `N#Cc1ccccc1Cn1nc(-c2ccc(CO)o2)c2ccccc21` displayed an IC50 of 8.7 µM.
As for `N#CCCCCCc1cnc(-c2nn(Cc3ccccc3F)c3ncccc23)nc1N`, the IC50 was 588 µM.
`OCc1ccc(-c2nn(Cc3ccccc3F)c3ncncc23)o1` returned an IC50 of 9.4 µM.
Consider `Nc1nc(-c2nn(Cc3ccccc3F)c3ncccc23)ncc1F`, for which the concentration for half-maximal inhibition (IC50) was determined as 478 µM.
Regarding `OCc1ccc(-c2nn(Cc3cccc(F)c3)c3ccccc23)o1`, it took 10 µM to reach half-maximal inhibition (IC50).
`Fc1ccccc1Cn1nc(-c2nn[nH]n2)c2cccnc21` yielded a half-inhibitory concentration (IC50) of 8.6 µM.
In the case of `N#Cc1cnc(-c2nn(Cc3ccccc3F)c3ncccc23)nc1N`, half-maximal inhibition (IC50) was put at 391 µM.
On the same count and under the same terms, as for `CC(C)S(=O)(=O)c1cnc(-c2nn(Cc3ccccc3F)c3ncccc23)nc1N`, the figure is 517 µM; as for `CS(=O)(=O)c1cnc(-c2nn(Cc3ccccc3F)c3ncccc23)nc1N`, 261 µM; as for `Fc1ccccc1Cn1nc(C2=NCCN2)c2cccnc21`, 3.2 µM.
Take `Nc1nc(-c2nn(Cc3ccccc3F)c3ncccc23)nc(N)c1C1CC1`: 233 µM corresponded to half-maximal inhibition (IC50).
Consider `CC(C)c1cnc(-c2nn(Cc3ccccc3F)c3ncccc23)nc1N`, for which the IC50 was determined as 207 µM.
The same measure, in the same setting: next, `OCc1ccnc(-c2nn(Cc3ccccc3F)c3ncccc23)n1`: 1.3 µM; `OCc1ccc(-c2nn(Cc3ccccc3F)c3ncccc23)o1`: 1.7 µM; `Nc1nc(-c2nn(Cc3ccccc3F)c3ncccc23)ncc1C1CCCC1`: 0.904 µM.
In turn, `Cc1cnc(-c2nn(Cc3ccccc3F)c3ncccc23)nc1N` had an IC50 of 675 µM.
The compound `OCc1ccc(-c2nn(Cc3ccc(Cl)s3)c3ccccc23)o1` came in with a concentration for half-maximal inhibition (IC50) of 7.2 µM.
As for `Cc1nc(-c2nn(Cc3ccccc3F)c3ncccc23)oc1CO`, the concentration for half-maximal inhibition (IC50) is 0.9 µM.
For `CC(C#N)CCCCCc1cnc(-c2nn(Cc3ccccc3F)c3ncccc23)nc1N` (centres undefined), the half-maximal inhibitory concentration (IC50) was determined as 1290 µM.
The compound `Nc1nc(-c2nn(Cc3ccccc3F)c3ncccc23)ncc1N1CCSCC1` had a half-inhibitory concentration (IC50) of 650 µM.
`Fc1ccccc1Cn1nc(-c2ncccn2)c2cccnc21` gave an IC50 of 1.25 µM.
As for `CCc1cnc(-c2nn(Cc3ccccc3F)c3ncccc23)nc1N`, the IC50 was 272 µM.
`OCc1ccc(-c2nn(Cc3ccc(F)cc3)c3ccccc23)o1` registered a half-maximal inhibitory concentration (IC50) of 19 µM.
Regarding `OCc1ccc(-c2nn(Cc3cccnc3)c3ccccc23)o1`, the midpoint of inhibition, the IC50, lay at 9.6 µM.
Compound `Nc1nc(-c2nn(Cc3ccccc3F)c3ncccc23)ncc1N1CCOCC1` showed an IC50 of 306 µM.
Still for that read-out and setting: next, `CCCCc1cnc(-c2nn(Cc3ccccc3F)c3ncccc23)nc1N`: 218 µM; `Nc1nc(-c2nn(Cc3ccccc3F)c3ncccc23)ncc1C1CCC1`: 633 µM.
Turning to `CCCCCc1cnc(-c2nn(Cc3ccccc3F)c3ncccc23)nc1N`, the IC50 was determined as 200 µM.
Still for that read-out and setting: as for `NS(=O)(=O)c1ccc(-c2nn(Cc3ccccc3F)c3ncccc23)o1`, the figure is 8 µM; as for `OCc1ccc(-c2nn(Cc3c(F)cccc3F)c3ccccc23)o1`, 15 µM; as for `OCc1ccc(-c2nn(Cc3ccccc3F)c3cccnc23)o1`, 20.4 µM.
For the compound `OCc1ccc(-c2nn(Cc3ccccc3)c3ccccc23)o1`, the half-inhibitory concentration (IC50) was determined as 10 µM.
On to `N#CCCc1cnc(-c2nn(Cc3ccccc3F)c3ncccc23)nc1N`, for which the IC50 worked out at 412 µM.
In the case of `N#Cc1cccc(Cn2nc(-c3ccc(CO)o3)c3ccccc32)c1`, the IC50 is 26 µM.
Still for that read-out and setting: as for `Nc1nc(-c2nn(Cc3ccccc3F)c3ncccc23)ncc1C1CCCCC1`, the figure is 561 µM; as for `CC(C)(C)c1cnc(-c2nn(Cc3ccccc3F)c3ncccc23)nc1N`, 0.709 µM; as for `Cc1coc(-c2nn(Cc3ccccc3F)c3ncccc23)n1`, 1.2 µM.
Compound `Fc1ccccc1Cn1nc(-c2ccccn2)c2cccnc21` gave an IC50 of 4.8 µM.
Same read-out and setting: as for `CCCc1cnc(-c2nn(Cc3ccccc3F)c3ncccc23)nc1N`, the figure is 252 µM; as for `OCc1ccc(-c2nn(Cc3ccccc3F)c3ccccc23)o1`, 4.9 µM; as for `CCCS(=O)(=O)c1cnc(-c2nn(Cc3ccccc3F)c3ncccc23)nc1N`, 378 µM.
Still for that read-out and setting: as for `Fc1ccccc1Cn1nc(-c2cc[nH]n2)c2cccnc21`, the figure is 1.8 µM.
Compound `COc1cnc(-c2nn(Cc3ccccc3F)c3ncccc23)nc1N` had a concentration for half-maximal inhibition (IC50) of 343 µM.

The next assay is filed under the species Oryctolagus cuniculus. The assay is described as §1. Format: functional, Aorta.
Conditions: not given
For the compound `OCc1ccc(-c2nn(Cc3ccccc3F)c3cccnc23)o1`, the Inhibition (as a rule, the percentage by which the read-out fell short of the control) is recorded as 27%.
